Values joined by “and” are separate entries in the source; they are usually repeats but may differ in a detail not shown here. Identical values can stand only once.
What was measured:
GhMPK6 = system: GhMPK6; set-up: species or system Gossypium hirsutum cv. Lvmian; conditions: in vivo
GhRbohD = system: GhRbohD; set-up: species or system Gossypium hirsutum cv. Lvmian; conditions: in vivo

O=C(NO)c1ccccc1 [Compound 1, benzohydroxamic acid]
GhMPK6 expression in cotton roots (Fig. 3e) Mean (GhMPK6): 2.326 and 2.211 and 2.747 and 2.402 | GhRbohD expression in cotton roots (Fig. 3f) Mean (GhRbohD): 6.888 and 6.864 and 7.067 and 8.206
